Results: ChEMBL document CHEMBL5131481, “Topoisomerase IIα inhibitory and antiproliferative activity of dihydroxylated 2,6-diphenyl-4-fluorophenylpyridines: Design, synthesis, and structure-activity relationships” (Bioorg Med Chem Lett, 2022)

Legend:
DU-145 = experiment: Antiproliferative activity against human DU-145 cells assessed as inhibition of cell proliferation; type: functional, cell-based
HCT-15 = experiment: Antiproliferative activity against human HCT-15 cells assessed as inhibition of cell proliferation; type: functional, cell-based
HeLa = experiment: Antiproliferative activity against human HeLa cells assessed as inhibition of cell proliferation; type: functional, cell-based
T47D = experiment: Antiproliferative activity against human T47D cells assessed as inhibition of cell proliferation; type: functional, cell-based
[1] = target: DNA topoisomerase 2-alpha (Homo sapiens) (UniProt P11388); experiment: Inhibition of topoisomerase 2alpha (unknown origin) assessed as relaxation of supercoiled plasmid pBR322 DNA at 20 uM relative to control
Sequence of DNA topoisomerase 2-alpha (Homo sapiens) (P11388 whole entry): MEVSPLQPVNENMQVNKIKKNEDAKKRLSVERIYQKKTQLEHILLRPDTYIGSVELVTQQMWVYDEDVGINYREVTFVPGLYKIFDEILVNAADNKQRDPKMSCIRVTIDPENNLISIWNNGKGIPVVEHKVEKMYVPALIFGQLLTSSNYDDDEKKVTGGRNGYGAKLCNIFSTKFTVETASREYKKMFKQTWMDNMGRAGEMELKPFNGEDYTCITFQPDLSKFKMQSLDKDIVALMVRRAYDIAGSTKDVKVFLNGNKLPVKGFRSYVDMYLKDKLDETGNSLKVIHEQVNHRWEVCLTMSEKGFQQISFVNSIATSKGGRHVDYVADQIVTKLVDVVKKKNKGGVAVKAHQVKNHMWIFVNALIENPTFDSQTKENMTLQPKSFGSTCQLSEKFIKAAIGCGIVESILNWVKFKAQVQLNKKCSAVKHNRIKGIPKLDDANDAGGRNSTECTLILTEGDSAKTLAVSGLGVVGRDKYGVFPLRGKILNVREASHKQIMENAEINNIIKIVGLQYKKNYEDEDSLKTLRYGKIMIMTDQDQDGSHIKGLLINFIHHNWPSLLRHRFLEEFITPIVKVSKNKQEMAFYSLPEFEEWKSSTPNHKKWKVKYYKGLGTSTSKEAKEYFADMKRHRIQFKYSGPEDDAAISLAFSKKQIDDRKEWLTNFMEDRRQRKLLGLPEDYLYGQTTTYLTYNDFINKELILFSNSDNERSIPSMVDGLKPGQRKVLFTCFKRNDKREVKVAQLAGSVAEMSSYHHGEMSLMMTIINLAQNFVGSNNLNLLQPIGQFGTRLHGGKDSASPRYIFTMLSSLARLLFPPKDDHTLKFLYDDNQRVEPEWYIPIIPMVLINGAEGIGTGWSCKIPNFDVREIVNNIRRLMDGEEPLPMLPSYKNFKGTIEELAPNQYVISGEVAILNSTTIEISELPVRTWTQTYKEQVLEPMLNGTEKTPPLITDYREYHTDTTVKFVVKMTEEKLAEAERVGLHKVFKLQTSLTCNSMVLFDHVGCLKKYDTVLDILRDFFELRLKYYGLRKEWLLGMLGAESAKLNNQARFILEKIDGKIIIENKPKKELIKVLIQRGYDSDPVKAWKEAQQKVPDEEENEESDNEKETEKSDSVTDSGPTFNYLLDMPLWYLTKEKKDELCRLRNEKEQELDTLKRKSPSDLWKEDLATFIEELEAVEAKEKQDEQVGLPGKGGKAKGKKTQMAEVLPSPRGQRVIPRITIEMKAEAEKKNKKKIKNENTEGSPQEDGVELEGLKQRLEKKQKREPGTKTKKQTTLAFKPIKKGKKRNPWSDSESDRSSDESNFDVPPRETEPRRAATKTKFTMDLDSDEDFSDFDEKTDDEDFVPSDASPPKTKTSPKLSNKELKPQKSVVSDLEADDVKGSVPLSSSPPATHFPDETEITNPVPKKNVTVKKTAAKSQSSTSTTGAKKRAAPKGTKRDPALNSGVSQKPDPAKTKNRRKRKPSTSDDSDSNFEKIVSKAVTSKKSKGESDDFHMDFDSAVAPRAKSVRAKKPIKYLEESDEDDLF

[2] = target: DNA topoisomerase 2-alpha (Homo sapiens) (UniProt P11388); experiment: Inhibition of topoisomerase 2alpha (unknown origin) assessed as relaxation of supercoiled plasmid pBR322 DNA at 100 uM relative to control

Row | SMILES | IC50 (DU-145) | IC50 (HCT-15) | IC50 (HeLa) | IC50 (T47D) | inhibition [1] | inhibition [2]
1 | Oc1ccc(-c2cc(-c3cccc(F)c3)cc(-c3cccc(O)c3)n2)cc1 | 2.7 µM | 3.07 µM | 14.2 µM | 3.51 µM | 36.1% | 73.9%
2 | Oc1cccc(-c2cc(-c3ccccc3F)cc(-c3cccc(O)c3)n2)c1 | 11.2 µM | 5.3 µM | 16 µM | 4.37 µM | 10.8% | 31.1%
3 | Oc1cccc(-c2cc(-c3ccccc3OC(F)(F)F)cc(-c3cccc(O)c3)n2)c1 | 5.42 µM | 4.22 µM | 16.7 µM | 7.95 µM | 6.7% | 33.4%
4 | Oc1ccc(-c2cc(-c3ccc(F)cc3)cc(-c3ccc(O)cc3)n2)cc1 | 6.03 µM | 4.97 µM | 8.68 µM | 5.26 µM | 42.5% | 97.1%
5 | Oc1ccc(-c2cc(-c3ccc(OC(F)(F)F)cc3)cc(-c3ccc(O)cc3)n2)cc1 | 5.39 µM | 13.9 µM | 16.9 µM | 5.15 µM | 6.4% | 59%
6 | COc1cc([C@@H]2c3cc4c(cc3[C@@H](O[C@@H]3O[C@@H]5CO[C@@H](C)O[C@H]5[C@H](O)[C@H]3O)[C@H]3COC(=O)[C@H]23)OCO4)cc(OC)c1O [ETOPOSIDE] | 7.47 µM |  | 7.01 µM | 5.82 µM | 21.2% | 
7 | Oc1ccc(-c2cc(-c3ccccc3OC(F)(F)F)cc(-c3ccc(O)cc3)n2)cc1 | 16 µM | 7.76 µM | 44.6 µM | 9.84 µM | 4.3% | 42.2%
8 | Oc1cccc(-c2cc(-c3ccc(F)cc3)cc(-c3ccccc3O)n2)c1 | > 50 µM | > 50 µM | > 50 µM | > 50 µM |  | 1.3%
9 | Oc1cccc(-c2cc(-c3ccc(F)cc3)cc(-c3cccc(O)c3)n2)c1 | 7.12 µM | 6.31 µM | 1.28 µM | 6.87 µM | 4.9% | 36.6%
10 | Oc1ccc(-c2cc(-c3ccccc3F)cc(-c3ccccc3O)n2)cc1 | > 50 µM | > 50 µM | > 50 µM | > 50 µM |  | 0.2%
11 | Oc1ccc(-c2cc(-c3ccccc3F)cc(-c3ccc(O)cc3)n2)cc1 | 7.78 µM | 8.18 µM | > 50 µM | 15.1 µM |  | 0%
12 | Oc1ccc(-c2cc(-c3ccc(F)cc3)cc(-c3cccc(O)c3)n2)cc1 | 15.2 µM | 5.02 µM | 8.08 µM | 5 µM | 30.4% | 43.7%
13 | Oc1ccc(-c2cc(-c3ccc(C(F)(F)F)cc3)cc(-c3ccc(O)cc3)n2)cc1 | > 50 µM | > 50 µM | > 50 µM | > 50 µM |  | 0.2%

The next lines start with the values.

Row | IC50 (DU-145) | IC50 (HCT-15) | IC50 (HeLa) | IC50 (T47D) | inhibition [1] | inhibition [2] | SMILES
14 | 5.67 µM | 1.73 µM | 14.1 µM | 5.04 µM | 7.4% | 43.4% | Oc1ccc(-c2cc(-c3cccc(OC(F)(F)F)c3)cc(-c3cccc(O)c3)n2)cc1
15 | 2.75 µM | 5.74 µM | 17.4 µM | 3.21 µM | 2.2% | 61.9% | Oc1ccc(-c2cc(-c3ccccc3C(F)(F)F)cc(-c3cccc(O)c3)n2)cc1
16 | 3.16 µM | 5.63 µM | 14.3 µM | 6.37 µM | 42.1% | 76.6% | Oc1ccc(-c2cc(-c3ccccc3F)cc(-c3cccc(O)c3)n2)cc1
17 | > 50 µM | 6.44 µM | 17.3 µM | 2.87 µM | 4.1% | 44.1% | Oc1ccc(-c2cc(-c3ccc(C(F)(F)F)cc3)cc(-c3cccc(O)c3)n2)cc1
18 | 7.76 µM | 2.31 µM | 5.8 µM | 7.3 µM | 4.4% | 45.2% | Oc1ccc(-c2cc(-c3ccccc3OC(F)(F)F)cc(-c3cccc(O)c3)n2)cc1
19 | > 50 µM | > 50 µM | > 50 µM | > 50 µM |  | 0% | Oc1ccc(-c2cc(-c3ccccc3C(F)(F)F)cc(-c3ccc(O)cc3)n2)cc1
20 | > 50 µM | > 50 µM | > 50 µM | > 50 µM |  | 0.1% | Oc1ccc(-c2cc(-c3cccc(C(F)(F)F)c3)cc(-c3ccccc3O)n2)cc1
